# In US20250042857A1, “SOS1 Inhibitor With Pyrido-Fused Six-Membered Ring Structure” (HAIHE BIOPHARMA CO., LTD., priority 2021, published 2025):
# Experiments:
# p-ERK of PC-9 cells = assay: p-ERK HTRF assay in PC-9 cells; type: cell-based; conditions: Homo sapiens, PC-9, 1 h, PC-9 lung cancer cells, 1 hour treatment, read-out: IC50, inhibitory activity on p-ERK of PC-9 cells
# Method: IC50 Values of Compounds Determined by p-ERK HTRF Assay in PC-9 Cells
# Experimental objective: an inhibitory effect of the test compounds on the phosphorylation of PC-9ERK of lung cancer cells at a cellular level was evaluated by detecting the phosphorylation of ERK.
# • PRMI 1640 medium (Invitrogen-11875093) • 0.25% pancreatin (Invitrogen-25200056) • Phosphoric acid buffer salt solution (PBS, pH 7.4) (Invitrogen-10010023) • Double-antibody (PS) (Invitrogen-15140122) • Fetal bovine serum (FBS) (Gibco-10091148) • Trypan blue (Gibco-15250061) • 10-cm culture dish (Corning-430167) • 10-mL pipette (Costar-4488) • Pipettor (Sartorius-17009031) • 15-mL centrifuge tube (Corning-430052) • 50-mL centrifuge tube (Corning-430829) • Cryotube (Thermo-377267) • 1.5-mL EP tube (Axygen-MCT-150-C-S) • Cell incubator (Thermo-371) • Microscope (Olympus-CKX41) • Centrifuge (Flying Pigeon-TDL-80-2B) • Cell counter (Countstar-IC-1000) • Envision (Perkin Elmer) • Spark 10M (TECAN) • Phospho-ERK1/2 (Thr202/Tyr204) Experimental kit (Cisbio, Cat. No. 64AERPEG) • PC-9 cells: RPMI1640+10% FBS+1% PS
# • 1) PBS, 0.25% pancreatin, and a cell culture medium were placed in a water-bath kettle at 37° C. for preheating; • 2) cells were observed under a microscope, a fusion degree was evaluated, and no bacterial and fungi pollution was confirmed; • 3) a culture solution was removed, the cells were washed with 5 mL of PBS and digested with 2 mL of the 0.25% trypsin, the digestion was terminated with 10 mL of the fresh cell culture medium, a culture dish was rinsed, and the cells were transferred to a 15-mL centrifuge tube; • 4) the collected cells were centrifuged at 1,000 rpm for 5 minutes; • 5) after the centrifugation, the supernatant was discarded, the cells were resuspended in 5 mL of the cell culture medium, 20 μL of the resuspended cells were aspirated, and the number and viability of viable cells were recorded; • 6) the cell culture medium was used and the cell density was adjusted (PC-9:10,000 cells/well, and 45 μL per well); • 7) in a 384-well plate, 45 μL of a cell suspension per well was transferred according to an experimental design figure; and • 8) the cells were incubated overnight at 37° C. and 5% CO2.
# • 1) The compounds were diluted from the stock concentration to 10 mM with 100% DMSO (Trametinib was diluted to 1 mM), then 3-fold diluted into 10 points (5 μL of the diluted compounds with the concentration of 10 mM were transferred to 10 μL of the DMSO in an LDV plate), and centrifuged at 1,000 rpm/min for 1 minute; • 2) 5 μL of the diluted compounds of step 1) were transferred to an inter plate 1 containing 45 μL of the cell culture medium (the compounds were diluted from 1,000× to 100×); • 3) 5 μL of the diluted compounds of step 2) were transferred to an inter plate 2 containing 45 μL of the cell culture medium (the compounds were diluted from 100× to 10×); • 4) 5 μL of the compounds were pipetted from the inter plate 2 into a cell culture plate (the compounds were diluted from 10 folds to 1 fold), the final concentrations of the test compounds were 10,000 nM, 3333.33 nM, 1111.11 nM, 370.37 nM, 123.46 nM, 41.15 nM, 13.72 nM, 4.57 nM, 1.52 nM, and […], the solution was centrifuged at 1,000 rpm/min for 1 minute, and the final content of the DMSO was 0.1%; and • 5) the cells were treated in an incubator at 37° C. for 1 hour. […]
# KRAS-G12C/SOS1 = KRAS-G12C/SOS1 (Homo sapiens (Human), UniProt Q07889); assay: Detection of inhibitory effects of compounds on KRAS-G12C/SOS1 (KRASG12C/SOS binding kit, HTRF); conditions: Em665/620, read-out: IC50, inhibitory activity on interaction of KRAS-G12C/SOS1
# Excerpt: Experimental objective: The inhibitory effects of the tested compounds on KRAS-G12C/SOS1 were detected. IC50 was used to characterize the inhibitory ability of the compounds on the KRAS-G12C/SOS1. The lower IC50 value indicated the stronger inhibitory ability. BI-3406 was used as a positive control compound.
# Experimental reagents: KRASG12C/SOS binding kit (Cisbio, cat. 63ADK000CB16PEG); DMSO (Sigma, cat. D8418-1L); and 384-well white plate (PerkinElmer, cat. 6007290)
# • 1. Preparation of compounds: the test compounds were dissolved in 100% DMSO to obtain 10 mM stock solutions and the stock solutions were stored in a refrigerator in the dark. • 2. Kinase reaction process:
# Preparation of compounds: the test compounds had the concentration of 5,000 nM and diluted in a 384-well plate into a 100% DMSO solution at the 200-fold final concentration, and the compounds were diluted 3-fold with 10 concentrations. 50 nL of the compounds at the 200-fold final concentration were transferred to the plate of interest, the 384-well plate, using a dispenser Echo 550. 50 nL of 100% DMSO was added to each negative control well and positive control well.
# A Tag1-SOS1 solution at the 4-fold final concentration was prepared using a diluent buffer.
# 2.5 μL of the Tag1-SOS1 solution at the 4-fold final concentration was added to the 384-well plate.
# A Tag2-KRAS-G12C solution at the 4-fold final concentration was prepared using the diluent buffer.
# 2.5 μL of the Tag2-KRAS-G12C solution at the 4-fold final concentration was respectively added into compound wells and the positive control wells; and 2.5 μL of the diluent buffer was added to the negative control wells.
# The 384-well plate was centrifuged at 1,000 rpm for 30 seconds, shaken and mixed uniformly, and incubated at room temperature for 15 minutes.
# An Anti-Tag1-TB3+ solution at the 1-fold final concentration and an Anti-Tag2-XL665 solution at the 1-fold final concentration were prepared using a detection buffer, the two solutions were mixed uniformly to obtain a Mix solution, and 5 μL of the Mix solution was added into each well.
# The 384-well plate was centrifuged at 1,000 rpm for 30 seconds, shaken and mixed uniformly, and incubated at 4° C. for 120 minutes.
# Em665/620 was read using an Envision microplate reader.
# Inhibition %=(Max signal−Compound signal)/(Max signal−Min signal)×100 Calculation formula • wherein the Min signal was the mean value of the negative control wells, and the Max signal was the mean value of the positive control wells.
# A dose-response curve was fitted using the log value of the concentration as an X axis and the percentage of the inhibitory rate as a Y axis by using the log(inhibitor) vs. response-variable slope of an analytical software GraphPadPrism5, thereby obtaining the IC50 value of each compound on an enzyme activity.
# KRAS-G12C/SOS1, sequence (Q07889 whole entry, stated change not applied): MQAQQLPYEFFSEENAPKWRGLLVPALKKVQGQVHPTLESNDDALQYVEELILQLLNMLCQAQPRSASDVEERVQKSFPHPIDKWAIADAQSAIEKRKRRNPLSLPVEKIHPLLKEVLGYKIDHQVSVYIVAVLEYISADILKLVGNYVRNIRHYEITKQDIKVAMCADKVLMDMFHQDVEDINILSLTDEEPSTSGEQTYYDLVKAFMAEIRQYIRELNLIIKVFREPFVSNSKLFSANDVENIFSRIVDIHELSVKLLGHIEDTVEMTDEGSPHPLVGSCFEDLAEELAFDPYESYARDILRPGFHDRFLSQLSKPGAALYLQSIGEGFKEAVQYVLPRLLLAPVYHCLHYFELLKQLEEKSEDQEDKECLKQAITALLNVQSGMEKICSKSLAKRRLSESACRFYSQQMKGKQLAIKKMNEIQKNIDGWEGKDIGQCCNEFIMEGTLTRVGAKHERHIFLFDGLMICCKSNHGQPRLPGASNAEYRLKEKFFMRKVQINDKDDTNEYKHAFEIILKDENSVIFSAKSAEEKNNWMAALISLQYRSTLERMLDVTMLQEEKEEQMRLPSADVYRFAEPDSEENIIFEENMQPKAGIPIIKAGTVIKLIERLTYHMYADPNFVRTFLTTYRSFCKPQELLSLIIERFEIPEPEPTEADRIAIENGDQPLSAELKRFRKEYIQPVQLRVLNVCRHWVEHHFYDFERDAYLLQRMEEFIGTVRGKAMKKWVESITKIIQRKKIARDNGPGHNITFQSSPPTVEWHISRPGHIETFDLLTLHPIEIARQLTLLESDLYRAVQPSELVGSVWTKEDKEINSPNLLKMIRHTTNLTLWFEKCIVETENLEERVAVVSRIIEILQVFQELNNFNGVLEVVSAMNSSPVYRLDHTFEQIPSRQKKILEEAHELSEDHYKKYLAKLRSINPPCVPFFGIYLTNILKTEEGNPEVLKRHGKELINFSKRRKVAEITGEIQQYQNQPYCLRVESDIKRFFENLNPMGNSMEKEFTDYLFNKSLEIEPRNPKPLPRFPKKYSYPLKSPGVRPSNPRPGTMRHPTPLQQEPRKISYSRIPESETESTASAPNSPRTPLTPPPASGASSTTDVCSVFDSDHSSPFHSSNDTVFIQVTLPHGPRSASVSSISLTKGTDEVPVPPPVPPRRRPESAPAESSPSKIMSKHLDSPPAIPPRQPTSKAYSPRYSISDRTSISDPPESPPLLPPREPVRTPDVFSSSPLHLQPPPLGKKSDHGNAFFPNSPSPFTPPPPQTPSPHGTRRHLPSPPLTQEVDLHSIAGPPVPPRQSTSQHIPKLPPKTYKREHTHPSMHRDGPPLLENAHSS
IC50 (p-ERK of PC-9 cells),IC50 (KRAS-G12C/SOS1),Structure (SMILES)
≤ 300 nM,≤ 100 nM,CC(=O)N1CCN(c2cc3c(N[C@H](C)c4cccc(C(F)F)c4F)cc(C)nc3cn2)CC1 [Compound B-71]
≤ 300 nM,,C[C@@H](Nc1ccnc2cnc(N3CCn4cncc4C3)cc12)c1cccc(C(F)F)c1F [Compound B-30]
≤ 300 nM,,C[C@@H](Nc1ccnc2cnc(N3CCN(C(=O)C4CC4)CC3)cc12)c1cccc(C(F)F)c1F [Compound B-25]
> 1000 nM,,C[C@@H](Nc1ccnc2cnc(C3(O)CCN(C(=O)C[C@@H]4CNCCO4)CC3)cc12)c1cccc(C(F)F)c1F [Compound B-142]
≤ 300 nM,,C[C@@H](Nc1ccnc2cnc(N3CCN(C(=O)C4CCOCC4)CC3)cc12)c1cccc(C(F)F)c1F [Compound B-27]
≤ 300 nM,,C[C@@H](Nc1ccnc2cnc(N3CCN(C(=O)C4COC4)CC3)cc12)c1cccc(C(F)F)c1F [Compound B-26]
300 to 1000 nM,,C[C@@H](Nc1ccnc2cnc(N3CCn4nccc4C3)cc12)c1cccc(C(F)F)c1F [Compound B-28]
300 to 1000 nM,,C[C@@H](Nc1ccnc2cnc(N3CCn4ccnc4C3)cc12)c1cccc(C(F)F)c1F [Compound B-29]
≤ 300 nM,,C[C@@H](O)C(=O)N1CCC(O)(c2cc3c(N[C@H](C)c4cccc(C(F)F)c4F)ccnc3cn2)CC1 [Compound B-120]
,≤ 100 nM,COc1cc2nccc(N[C@H](C)c3cccc(C(F)F)c3F)c2cc1C1=CCS(=O)(=O)CC1 [Compound A-45]
,≤ 100 nM,C[C@@H](Nc1ccnc2cnc(N3CCCC3=O)cc12)c1cccc(C(F)F)c1F [Compound B-59]
≤ 300 nM,,C[C@@H](Nc1ccnc2cnc(N3CCCS3(=O)=O)cc12)c1cccc(C#N)c1F [Compound B-166]
,≤ 100 nM,COc1cc2nccc(N[C@H](C)c3cccc(C(F)F)c3F)c2cc1O[C@H]1CCNC1 [Compound A-5]
,100 to 500 nM,C[C@@H](Nc1ccnc2cnc(N3CC(O)CC3=O)cc12)c1cccc(C(F)F)c1F (stereo partly shown) [Compound B-57]
,≤ 100 nM,COc1cc2nc(C)cc(N[C@H](C)c3cccc(C(F)F)c3F)c2cc1OC [Compound A-2]
,≤ 100 nM,C[C@@H](Nc1ccnc2cnc(N3C[C@@H](O)C[C@H]3CO)cc12)c1cccc(C(F)F)c1F [Compound B-77]
> 1000 nM,,C[C@@H](Nc1ccnc2cnc(C3(O)CCN(C(=O)C[C@H]4CNCCO4)CC3)cc12)c1cccc(C(F)F)c1F [Compound B-143]
,≤ 100 nM,CNC(=O)C1CCN(c2cc3c(N[C@H](C)c4cccc(C(F)F)c4F)ccnc3cn2)C(=O)C1 (stereo partly shown) [Compound B-55]
